Measured values published in PubChem BioAssay AID1963423 (Molecular Pharmacology Branch, DTP, NCI, 2024).

Tested on: 439559-082-T-J2-PDC complex spheroid growth
Experiment: Anticancer human tumor 439559-082-T-J2-PDC patient-derived colon adenocarcinoma cell line growth inhibition [Asc]
Conditions: for IC50: curve of first compound; for viability, T/C: stronger effect = lower value
In short: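 Concentration series start at each agent's clinical Cmax, or at 10 microM when none is established, and drop in half-log steps; agents are applied alone or together to complex spheroids built with HUVEC and hMSC.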
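Further: spheroids exposed to agents for 7 days starting day 3 after seeding.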
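Wherever viability, T/C is given: percent of DMSO vehicle control viability with 100% = vehicle.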

NC1CCC(NC2CC2c2ccccc2)CC1 (configuration not stated) + CNC(C)C(=O)NC1CN(S(=O)(=O)c2cccc(S(=O)(=O)N3CCC4CCC(C(=O)NC(c5ccccc5)c5ccccc5)N4C(=O)C(NC(=O)C(C)NC)C3)c2)CCC2CCC(C(=O)NC(c3ccccc3)c3ccccc3)N2C1=O
IC50 (second compound 0.00316 µM): > 100 nM | IC50 (second compound 0.01 µM): > 100 nM | IC50 (second compound 0.0316 µM): > 100 nM | IC50 (second compound 0.1 µM): > 100 nM | IC50 (second compound 0.316 µM): > 100 nM | IC50 (second compound 1 µM): > 100 nM | viability, T/C (second compound 0.00316 µM, first compound 0.000316 µM): 104% | viability, T/C (second compound 0.00316 µM, first compound 0.001 µM): 100% | viability, T/C (second compound 0.00316 µM, first compound 0.00316 µM): 110% | viability, T/C (second compound 0.00316 µM, first compound 0.01 µM): 95.7% | viability, T/C (second compound 0.00316 µM, first compound 0.0316 µM): 98.4% | viability, T/C (second compound 0.00316 µM, first compound 0.1 µM): 98.2% | viability, T/C (second compound 0.01 µM, first compound 0.000316 µM): 102% | viability, T/C (second compound 0.01 µM, first compound 0.001 µM): 95% | viability, T/C (second compound 0.01 µM, first compound 0.00316 µM): 109% | viability, T/C (second compound 0.01 µM, first compound 0.01 µM): 111% | viability, T/C (second compound 0.01 µM, first compound 0.0316 µM): 99.5% | viability, T/C (second compound 0.01 µM, first compound 0.1 µM): 107% | viability, T/C (second compound 0.0316 µM, first compound 0.000316 µM): 107% | viability, T/C (second compound 0.0316 µM, first compound 0.001 µM): 91.3% | viability, T/C (second compound 0.0316 µM, first compound 0.00316 µM): 101% | viability, T/C (second compound 0.0316 µM, first compound 0.01 µM): 109% | viability, T/C (second compound 0.0316 µM, first compound 0.0316 µM): 104% | viability, T/C (second compound 0.0316 µM, first compound 0.1 µM): 107% | viability, T/C (second compound 0.1 µM, first compound 0.000316 µM): 105% | viability, T/C (second compound 0.1 µM, first compound 0.001 µM): 101% | viability, T/C (second compound 0.1 µM, first compound 0.00316 µM): 98.1% | viability, T/C (second compound 0.1 µM, first compound 0.01 µM): 104% | viability, T/C (second compound 0.1 µM, first compound 0.0316 µM): 96.4% | viability, T/C (second compound 0.1 µM, first compound 0.1 µM): 98% | viability, T/C (second compound 0.316 µM, first compound 0.000316 µM): 95.9% | viability, T/C (second compound 0.316 µM, first compound 0.001 µM): 101% | viability, T/C (second compound 0.316 µM, first compound 0.00316 µM): 93.6% | viability, T/C (second compound 0.316 µM, first compound 0.01 µM): 100% | viability, T/C (second compound 0.316 µM, first compound 0.0316 µM): 101% | viability, T/C (second compound 0.316 µM, first compound 0.1 µM): 97% | viability, T/C (second compound 1 µM, first compound 0.000316 µM): 85.5% | viability, T/C (second compound 1 µM, first compound 0.001 µM): 85.9% | viability, T/C (second compound 1 µM, first compound 0.00316 µM): 87.4% | viability, T/C (second compound 1 µM, first compound 0.01 µM): 84.5% | viability, T/C (second compound 1 µM, first compound 0.0316 µM): 86.3% | viability, T/C (second compound 1 µM, first compound 0.1 µM): 77.3%
